Source: BindingDB's records for doi:10.1021/jm301755q (University Health Network, 2013)

Tests used:
[1] = target: Protein-arginine deiminase type-4 (Homo sapiens) (UniProt Q9UM07); test: Inhibition of PAD4 (unknown origin) at 52 degC
[2] = target: Protein-arginine deiminase type-4 (Homo sapiens) (UniProt Q9UM07); test: Inhibition of PAD4 (unknown origin) at 37 degC

Protein-arginine deiminase type-4 (Homo sapiens), sequence (Q9UM07 whole entry, looked up): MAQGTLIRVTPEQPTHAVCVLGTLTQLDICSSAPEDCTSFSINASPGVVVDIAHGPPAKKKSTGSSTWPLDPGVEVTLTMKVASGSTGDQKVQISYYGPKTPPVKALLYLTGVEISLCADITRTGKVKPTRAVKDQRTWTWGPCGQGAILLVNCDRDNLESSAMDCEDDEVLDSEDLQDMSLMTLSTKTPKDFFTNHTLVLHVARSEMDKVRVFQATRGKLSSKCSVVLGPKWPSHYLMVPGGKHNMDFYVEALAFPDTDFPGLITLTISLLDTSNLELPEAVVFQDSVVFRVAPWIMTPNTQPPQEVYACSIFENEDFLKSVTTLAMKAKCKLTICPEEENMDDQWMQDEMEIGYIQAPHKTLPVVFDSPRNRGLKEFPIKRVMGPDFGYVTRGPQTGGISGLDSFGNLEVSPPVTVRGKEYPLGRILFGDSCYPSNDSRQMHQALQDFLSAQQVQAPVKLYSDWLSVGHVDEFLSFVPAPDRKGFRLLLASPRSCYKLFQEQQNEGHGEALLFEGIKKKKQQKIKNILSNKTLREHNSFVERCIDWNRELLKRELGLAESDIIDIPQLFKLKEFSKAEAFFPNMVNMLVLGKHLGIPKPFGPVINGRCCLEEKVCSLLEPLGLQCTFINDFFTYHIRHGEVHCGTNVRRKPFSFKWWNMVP

IC50 [1] [µM]	Ki [1] [µM]	IC50 [2] [µM]	Ki [2] [µM]	Structure (SMILES)
2650	231	1320	115	C[C@H]1C(=O)Nc2ccc(-c3csc(N=C(N)N)n3)cc21
790	69	1460	127	CC(=NN=C(N)N)C1=CC(C)(C)CCC1
4270	371	1380	131	CC1(C)NC(=O)N(CN2CCNCC2)C1=O
757	66	1760	153	CC1CCc2c(sc3ncn(N)c(=N)c23)C1 (stereo unspecified)
